Test results from patent US5250518A, “O-methyl derivatives of azithromycin A” (priority 1990, dated 1993).
In brackets after ≈: the same amount, converted by molar mass.

What was measured:
[1] = tested on: Klebsiella pneumoniae NCTC-10499; experiment: Antibacterial in vitro activity, tube dilution method (Table 1); assay type: cell-based; details: NCTC10499, Brain hearth bouillon, 24 hours, 37° C.
Method: (§1) O-methyl derivatives of azithromycin A of the formulae (Ii)-(Il) and their pharmaceutically acceptable addition salts have a potent antimicrobial activity. The preliminary antibacterial in vitro activity of 6-O-methyl-azithromycin A (Ii) was determined on a series of gram-positiveand gram-negative test bacteria and clinical isolates in comparison with erythromycin A. The assessment was performed by the "tube dilution" method. In the investigation there were used 24-hours cultures in "brain hearth bouillon" of standard strains and freshly isolated strains from a clinical sample.
(§2) Substrate: Brain hearth bouillon
(§3) Incubation: 24 hours, 37° C.
(§4) MIC: Minimal Inhibitory Concentration (μg/mL)
(§5) MBC: Minimal Bactericidal Concentration (μg/mL)

[2] = tested on: Pseudomonas aeruginosa NCTC-10490; experiment: as above; assay type: cell-based; details: NCTC10490, Brain hearth bouillon, 24 hours, 37° C.
Method: as §1, §2, §3, §4, §5

[3] = tested on: Staphilococcus aureus ATCC 6538-P; experiment: as above; assay type: cell-based; details: Brain hearth bouillon, 24 hours, 37° C.
Method: as §1, §2, §3, §4, §5

[4] = tested on: Streptococcus faecalis ATCC-8043; experiment: as above; assay type: cell-based; details: Enterococcus faecalis, ATCC8043, Brain hearth bouillon, 24 hours, 37° C.
Method: as §1, §2, §3, §4, §5

[5] = tested on: Escherichia coli ATCC 10536; experiment: as above; assay type: cell-based; details: ATCC10536, Brain hearth bouillon, 24 hours, 37° C.
Method: as §1, with “The” for “O-methyl derivatives of azithromycin A of the formulae (Ii)-(Il) and their pharmaceutically acceptable addition salts have a potent antimicrobial activity. The”

Sarcina lutea ATCC-9341 = experiment: as above; assay type: cell-based; details: Micrococcus luteus, ATCC9341, Brain hearth bouillon, 24 hours, 37° C.
Method: as §1, with “The” for “O-methyl derivatives of azithromycin A of the formulae (Ii)-(Il) and their pharmaceutically acceptable addition salts have a potent antimicrobial activity. The”

[6] = tested on: Haemophylus influenzae 4028; experiment: Antibacterial in vitro activity against clinical isolates, tube dilution method (Table 2); assay type: cell-based; details: clinical isolate, Brain hearth bouillon, 24 hours, 37° C.
Method: as §1, §2, §3, §4
(§6) MBC: Minimal Bactericidal Concentation (μg/mL)

[7] = tested on: Staphylococcus aureus 10097; experiment: as above; assay type: cell-based; details: clinical isolate, Brain hearth bouillon, 24 hours, 37° C.
Method: as §1, §2, §3, §4, §6

[8] = tested on: Staphylococcus aureus 10099; experiment: as above; assay type: cell-based; details: clinical isolate, Brain hearth bouillon, 24 hours, 37° C.
Method: as §1, §2, §3, §4, §6

[9] = tested on: Staphylococcus saprophyticus 3947; experiment: as above; assay type: cell-based; details: clinical isolate, Brain hearth bouillon, 24 hours, 37° C.
Method: as §1, §2, §3, §4, §6

[10] = tested on: Streptococcus faecalis 10390; experiment: as above; assay type: cell-based; details: Enterococcus faecalis, clinical isolate, Brain hearth bouillon, 24 hours, 37° C.
Method: as §1, §2, §3, §4, §6

[11] = tested on: Streptococcus pneumoniae 4050; experiment: as above; assay type: cell-based; details: clinical isolate, Brain hearth bouillon, 24 hours, 37° C.
Method: as §1, §2, §3, §4, §6

ATCC 6538P = experiment: Antibacterial in vitro activity in comparison with azithromycin (Table 3); assay type: cell-based, Staphilococcus aureus; details: for MIC: Brain hearth Bouillon, 24-48 hours, 37° C., inoculum 10^-5 -10^-6 cfu/mL, read-out: MIC
From the text: (§7) In Table 3 there are represented in vitro tests of 6-O-methyl- (Ii), 6,11-di-O-methyl- (Ij), 11-O-methyl- (Ik) and 6,11,4"-tri-O-methyl-azithromycin A (II) in comparison with azithromycin.

ATCC 10240 = experiment: as above; assay type: cell-based; details: Brain hearth Bouillon, 24-48 hours, 37° C., inoculum 10^-5 -10^-6 cfu/mL
From the text: as §7

ATCC 8043 = experiment: as above; assay type: cell-based; details: Staphylococcus faecalis, ATCC8043; Brain hearth Bouillon, 24-48 hours, 37° C., inoculum 10^-5 -10^-6 cfu/mL
From the text: as §7

[12] = tested on: Bacillus cereus NCTC 10320; experiment: as above; assay type: cell-based; details: NCTC10320, Brain hearth Bouillon, 24-48 hours, 37° C., inoculum 10^-5 -10^-6 cfu/mL
From the text: as §7

[13] = tested on: Bacillus pumilus NCTC 8241; experiment: as above; assay type: cell-based; details: NCTC8241, Brain hearth Bouillon, 24-48 hours, 37° C., inoculum 10^-5 -10^-6 cfu/mL
From the text: as §7

[14] = tested on: Bacillus subtilis NCTC 8241; experiment: as above; assay type: cell-based; details: for MIC: Bacillus subtilis, NCTC8241, Brain hearth Bouillon, 24-48 hours, 37° C., inoculum 10^-5 -10^-6 cfu/mL
From the text: as §7

[15] = tested on: Corynebacterium xerosis NCTC 9755; experiment: as above; assay type: cell-based; details: NCTC9755, Brain hearth Bouillon, 24-48 hours, 37° C., inoculum 10^-5 -10^-6 cfu/mL
From the text: as §7

[16] = tested on: Escherichia coli ATCC 10536; experiment: as above; assay type: cell-based; details: ATCC10536, Brain hearth Bouillon, 24-48 hours, 37° C., inoculum 10^-5 -10^-6 cfu/mL
From the text: as §7

[17] = tested on: Pseudomonas aeruginosa NCTC 10490; experiment: as above; assay type: cell-based; details: NCTC10490, Brain hearth Bouillon, 24-48 hours, 37° C., inoculum 10^-5 -10^-6 cfu/mL
From the text: as §7

Sarcina lutea ATCC 9341 = experiment: as above; assay type: cell-based; details: for MIC: Micrococcus luteus, ATCC9341, Brain hearth Bouillon, 24-48 hours, 37° C., inoculum 10^-5 -10^-6 cfu/mL
From the text: as §7

[18] = tested on: Staphylococcus epidermidis ATCC 12228; experiment: as above; assay type: cell-based; details: ATCC12228, Brain hearth Bouillon, 24-48 hours, 37° C., inoculum 10^-5 -10^-6 cfu/mL
From the text: as §7

[19] = tested on: gram-positive and gram-negative test bacteria and clinical isolates; experiment: Preliminary antibacterial in vitro activity, tube dilution method (Tables 1 and 2, summary); assay type: cell-based; details: versus erythromycin A
Method: as §1

[20] = Biological activity (1 mg contains μg of azithromycin); details: per 1 mg of (Ii)
[21] = tested on: standard bacterial strains; experiment: In vitro activity on the series of standard bacterial strains (Table 3, summary); assay type: cell-based; details: versus azithromycin
Method: In Table 3 there are represented in vitro tests of 6-O-methyl- (Ii), 6,11-di-O-methyl- (Ij), 11-O-methyl- (Ik) and 6,11,4"-tri-O-methyl-azithromycin A (II) in comparison with azithromycin. […] Namely, the majority of the investigated bacterial strains was 2 to 4 times more sensitive in comparison with the parent antibiotic.
Substrate: Brain hearth Bouillon
Incubation: 24-48 hours, 37° C.
Inocculum; 10^-5 -10^-6 cfu/mL

[22] = read-out: MBC (Minimal Bactericidal Concentration)
[23] = read-out: MIC (Minimal Inhibitory Concentration)
[24] = read-out: MBC (Minimal Bactericidal Concentation)

Which MBC [1, 22] does the source give for CC[C@H]1OC(=O)[C@H](C)[C@@H](O[C@H]2C[C@@](C)(OC)[C@@H](O)[C@H](C)O2)[C@H](C)[C@@H](O[C@@H]2O[C@H](C)C[C@H](N(C)C)[C@H]2O)[C@](C)(OC)C[C@@H](C)CN(C)[C@H](C)[C@@H](O)[C@]1(C)O [Ii, 6-O-Methyl-azithromycin A] here?
The MBC was 50 µg/mL (≈ 65.5 µM).

What about the MIC [1, 23] of the same compound?
The MIC was 12.5 µg/mL (≈ 16.4 µM).

What about the MBC [2, 22] of the same compound?
The MBC was over 50 µg/mL.

And the MIC [2, 23]?
The MIC was over 50 µg/mL.

And the MBC [3, 22]?
Its MBC is 0.4 µg/mL (≈ 0.524 µM).

What about the MIC [3, 23] of the same compound?
The MIC was 0.2 µg/mL (≈ 0.262 µM).

And the MBC [4, 22]?
The MBC was 0.4 µg/mL (≈ 0.524 µM).

And the MIC [4, 23]?
The MIC was 0.2 µg/mL (≈ 0.262 µM).

And the MBC [5, 22]?
Its MBC is 3.2 µg/mL (≈ 4.19 µM).

And the MIC [5, 23]?
The MIC was 1.6 µg/mL (≈ 2.1 µM).

What about the MBC (Sarcina lutea ATCC-9341; [22]) of the same compound?
The MBC was 0.2 µg/mL (≈ 0.262 µM).

And the MIC (Sarcina lutea ATCC-9341; [23])?
Its MIC is 0.1 µg/mL (≈ 0.131 µM).

What about the MBC [6, 24] of the same compound?
The MBC was 0.2 µg/mL (≈ 0.262 µM).

What about the MIC [6, 23] of the same compound?
Its MIC is 0.05 µg/mL (≈ 0.0655 µM).

What about the MBC [7, 24] of the same compound?
Its MBC is 0.4 µg/mL (≈ 0.524 µM).

What about the MIC [7, 23] of the same compound?
Its MIC is 0.05 µg/mL (≈ 0.0655 µM).

And the MBC [8, 24]?
Its MBC is 0.1 µg/mL (≈ 0.131 µM).

And the MIC [8, 23]?
The MIC was 0.05 µg/mL (≈ 0.0655 µM).

What about the MBC [9, 24] of the same compound?
Its MBC is 0.8 µg/mL (≈ 1.05 µM).

What about the MIC [9, 23] of the same compound?
Its MIC is 0.4 µg/mL (≈ 0.524 µM).

What about the MBC [10, 24] of the same compound?
The MBC was 3.1 µg/mL (≈ 4.06 µM).

And the MIC [10, 23]?
Its MIC is 0.8 µg/mL (≈ 1.05 µM).

What about the MBC [11, 24] of the same compound?
The MBC was 0.1 µg/mL (≈ 0.131 µM).

And the MIC [11, 23]?
The MIC was 0.025 µg/mL (≈ 0.0328 µM).

What about the MIC (ATCC 6538P) of the same compound?
Its MIC is 0.39 µg/mL (≈ 0.511 µM).

And the “activity with respect to azithromycin (from MIC)” value (“activity … (from MIC)” for short) (ATCC 6538P; printed as Micrococcus flavus ATCC 6538 P, versus azithromycin)?
Its value is “four times as active”.

What about the MIC (ATCC 10240) of the same compound?
The MIC was 0.79 µg/mL (≈ 1.04 µM).

What about the MIC (ATCC 8043) of the same compound?
The MIC was 0.05 µg/mL (≈ 0.0655 µM).

What about the MIC [12] of the same compound?
The MIC was 0.78 µg/mL (≈ 1.02 µM).

What about the MIC [13] of the same compound?
The MIC was 0.2 µg/mL (≈ 0.262 µM).

What about the “activity … (from MIC)” value ([14]; Bacillus subtilis NCTC 8241, versus azithromycin) of the same compound?
Its value is “twice as active”.

And the MIC [14]?
Its MIC is 0.2 µg/mL (≈ 0.262 µM).

What about the MIC [15] of the same compound?
The MIC was 12.5 µg/mL (≈ 16.4 µM).

And the MIC [16]?
Its MIC is 3.12 µg/mL (≈ 4.1 µM).

And the MIC [17]?
Its MIC is 100 µg/mL (≈ 131 µM).

What about the MIC (Sarcina lutea ATCC 9341) of the same compound?
Its MIC is 0.0125 µg/mL (≈ 0.0164 µM).

What about the “activity … (from MIC)” value (Sarcina lutea ATCC 9341; Sarcina lutea ATCC 9341, versus azithromycin) of the same compound?
Its value is “twice as active”.

What about the MIC [18] of the same compound?
Its MIC is 0.1 µg/mL (≈ 0.131 µM).

And the “activity on the investigated strains in comparison with erythromycin A, in words” value [19]?
The value was “somewhat improved activity”.

What about the “Biological activity: 1 mg contains azithromycin” value [20] of the same compound?
Its value is 754 μg.

With CC[C@H]1OC(=O)[C@H](C)[C@@H](O[C@H]2C[C@@](C)(OC)[C@@H](O)[C@H](C)O2)[C@H](C)[C@@H](O[C@@H]2O[C@H](C)C[C@H](N(C)C)[C@H]2O)[C@](C)(O)C[C@@H](C)CN(C)[C@H](C)[C@@H](OC)[C@]1(C)O [Ik, 11-O-Methyl-azithromycin A] as the compound, how does the MIC (ATCC 6538P) read?
The MIC was 0.2 µg/mL (≈ 0.262 µM).

What about the MIC (ATCC 10240) of the same compound?
Its MIC is 0.1 µg/mL (≈ 0.131 µM).

What about the MIC (ATCC 8043) of the same compound?
The MIC was 0.05 µg/mL (≈ 0.0655 µM).

What about the MIC [12] of the same compound?
The MIC was 0.1 µg/mL (≈ 0.131 µM).

What about the MIC [13] of the same compound?
The MIC was 0.05 µg/mL (≈ 0.0655 µM).

What about the MIC [14] of the same compound?
The MIC was 0.1 µg/mL (≈ 0.131 µM).

And the MIC [15]?
Its MIC is 1.56 µg/mL (≈ 2.04 µM).

What about the MIC [16] of the same compound?
Its MIC is 0.78 µg/mL (≈ 1.02 µM).

What about the MIC [17] of the same compound?
Its MIC is 25 µg/mL (≈ 32.8 µM).

What about the MIC (Sarcina lutea ATCC 9341) of the same compound?
The MIC was 0.0125 µg/mL (≈ 0.0164 µM).

What about the MIC [18] of the same compound?
The MIC was 0.1 µg/mL (≈ 0.131 µM).

And the “activity in comparison with azithromycin, in words” value [21]?
Its value is “significantly higher activity”.
